IC50, MIC and CC50 data for 13 compounds are collected here from ChEMBL document CHEMBL4118044, “Manzamine Alkaloids from an Acanthostrongylophora sp. Sponge” (J Nat Prod, 2017).

≈ marks a conversion by molar mass, not a printed value. Where only a bound is given, the exact number is not on record here.

The target of one test is T1, Sortase A (Staphylococcus aureus, UniProt Q9S446).
T1 sequence (Q9S446 whole entry): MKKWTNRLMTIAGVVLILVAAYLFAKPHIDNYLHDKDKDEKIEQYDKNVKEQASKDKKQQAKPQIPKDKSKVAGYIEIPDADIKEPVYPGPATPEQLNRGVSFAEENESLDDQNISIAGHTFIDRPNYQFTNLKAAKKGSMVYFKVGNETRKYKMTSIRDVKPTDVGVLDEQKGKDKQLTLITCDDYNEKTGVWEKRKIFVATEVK
In words: Inhibition of Staphylococcus aureus ATCC 6538p SortA expressed in Escherichia coli using Dabcyl-QALPETGEE-Edans as substrate after 1 hr by fluorescence spectrophotometric method.

Test [1] deals with Sodium/potassium-transporting ATPase. The test can be described thus: Inhibition of KCl-stimulated Na+/K+-ATPase in human placental membrane vesicles measured for 60 secs by 3-O-methylfluorescein phosphate dye based fluorometric method. The class given is cell membranes, Placenta.
The next test deals with Bacillus spizizenii. In words: Antibacterial activity against Bacillus subtilis ATCC 6633 after 24 hrs by serial two fold dilution method. The class given is functional. To be noted: ATCC 6633, 24 h.
The test system of a further test is Salmonella typhimurium. The test can be described thus: Antibacterial activity against Salmonella enterica ATCC 14028 after 24 hrs by serial two fold dilution method. The settings on record: ATCC 14028, 24 h. Format: functional, Salmonella enterica subsp. enterica serovar Typhimurium.
The next test has as its system K562. The test can be described thus: Cytotoxicity against human K562 cells by MTT assay. To be noted: read-out: LC50 (the source's name). The class given is functional. In general terms: Formazan colour is commonly taken as a measure of viable cells.
The test system of a further test is A549. In words: Cytotoxicity against human A549 cells by MTT assay. The class given is functional. To be noted: read-out: LC50 (the source's name).
In a further test the test system is Escherichia coli. In words: Antibacterial activity against Escherichia coli ATCC 35270 after 24 hrs by serial two fold dilution method. The class given is functional. To be noted: ATCC 35270, 24 h.
The next test deals with Kocuria rhizophila. The test can be described thus: Antibacterial activity against Kocuria rhizophila NBRC 12708 after 24 hrs by serial two fold dilution method. To be noted: NBRC 12708, 24 h. Format: functional.
Test [2] can be described thus: Inhibition of Magnaporthe grisea Guy 11 ICL. Details: species or system Pyricularia grisea.
Another test deals with Proteus hauseri. In words: Antibacterial activity against Proteus hauseri NBRC 3851 after 24 hrs by serial two fold dilution method. The class given is functional. The settings on record: NBRC 3851, 24 h.
The subject of a further test is Staphylococcus aureus. The test can be described thus: Antibacterial activity against Staphylococcus aureus ATCC 6538p after 24 hrs by serial two fold dilution method. The class given is functional.

With `O[C@@H]1CC[C@@]23C[C@]45CN6CCCC/C=C\CC[C@](O)(C=C(c7nccc8c7[nH]c7ccccc78)[C@@H]4CC6)[C@@H]5N2CC[C@@H]1O[C@@]12CC[C@@H](O3)[C@@H](O)CCN1[C@@H]1[C@]3(CN4CCCC/C=C\CC[C@]1(O)C=C(c1nccc5c1[nH]c1ccccc15)[C@@H]3CC4)C2`, the half-inhibitory concentration (IC50) against Sortase A was greater than 150 µM; in test [1], greater than 150 µM; in [2], 27 µM. The MIC is 1.6 µg/mL (≈ 1.38 µM) with Bacillus spizizenii; 0.78 µg/mL (≈ 0.672 µM) in the test on Salmonella typhimurium; greater than 100 µg/mL with Escherichia coli; 1.6 µg/mL (≈ 1.38 µM) against Kocuria rhizophila; greater than 100 µg/mL against Proteus hauseri; greater than 100 µg/mL in the test on Staphylococcus aureus. The CC50 turned out to be 12 µM in the test on K562 and 13 µM in the test on A549.
`C1=C\CC[C@]23O[C@H]2[C@@H](c2nccc4c2[nH]c2ccccc24)[C@@H]2CCN(CCCC/1)C[C@@]21CCCCCCCCN[C@H]13`: the half-inhibitory concentration (IC50) (against Sortase A; in test [1]; in test [2]) was greater than 150 µM throughout. Also, the MIC is 100 µg/mL (≈ 181 µM) against Bacillus spizizenii; 50 µg/mL (≈ 90.4 µM) in the test with Salmonella typhimurium; greater than 100 µg/mL against Escherichia coli; 100 µg/mL (≈ 181 µM) in the test with Kocuria rhizophila; greater than 100 µg/mL with Proteus hauseri; greater than 100 µg/mL with Staphylococcus aureus. The CC50 in the test on K562 worked out at 9.6 µM; in the test with A549, 6.5 µM.
With `Cl.[O-][n+]1ccc2c([nH]c3ccccc32)c1C1=C[C@@]2(O)CC/C=C\CCCCN3CC[C@@H]1[C@]1(CC/C=C\CCCCN[C@H]12)C3`, the concentration for half-maximal inhibition (IC50) is 81 µM on Sortase A, greater than 150 µM in [1] and 26 µM in test [2]. Moreover, the MIC was greater than 100 µg/mL in the test on Bacillus spizizenii; 32 µg/mL in the test on Salmonella typhimurium; greater than 100 µg/mL against Escherichia coli; greater than 100 µg/mL against Kocuria rhizophila; greater than 100 µg/mL against Proteus hauseri; 32 µg/mL against Staphylococcus aureus. Also, the results for the CC50 in the test on K562 and in the test with A549 were 8.1 µM and 4.7 µM, respectively.
With `O[C@H]1/C=C\[C@H]2C[C@]34CN5CCCC/C=C\CC[C@](O)(C=C(c6nccc7c6[nH]c6ccccc67)[C@@H]3CC5)[C@@H]4N2CCC1`, the IC50 on Sortase A was greater than 150 µM; in test [1], greater than 150 µM; in test [2], 140 µM. Moreover, the minimal inhibitory concentration (MIC) is 6.3 µg/mL (≈ 11.2 µM) with Bacillus spizizenii; 1.6 µg/mL (≈ 2.83 µM) in the test with Salmonella typhimurium; greater than 100 µg/mL in the test with Escherichia coli; 6.3 µg/mL (≈ 11.2 µM) with Kocuria rhizophila; 13 µg/mL (≈ 23 µM) with Proteus hauseri; 25 µg/mL (≈ 44.3 µM) against Staphylococcus aureus. The values for the CC50 with K562 and with A549 were 7.2 µM and 5.8 µM, respectively.
Take `Cl.[O-][N+]1=C(C2=C[C@@]3(O)CC/C=C\CCCCN4CC[C@@H]2[C@]2(CC/C=C\CCCCN[C@H]23)C4)c2[nH]c3ccccc3c2CC1`: the IC50 on Sortase A was greater than 150 µM; in [1], 110 µM; in test [2], greater than 150 µM. Also, the minimal inhibitory concentration (MIC) was 64 µg/mL against Bacillus spizizenii; greater than 100 µg/mL against Salmonella typhimurium; greater than 100 µg/mL in the test with Escherichia coli; 64 µg/mL in the test on Kocuria rhizophila; 32 µg/mL with Proteus hauseri; 32 µg/mL against Staphylococcus aureus. Further, the CC50 worked out at 9.5 µM with K562 and 5.7 µM in the test on A549.
On to `O[C@]12C=C(c3nccc4c3[nH]c3ccccc34)[C@@H]3CCN(CCCC/C=C\CC1)C[C@@]31C[C@@H]3C=C[C@H]4CCC[N@+]43[C@H]12.[Cl-]`, for which the half-maximal inhibitory concentration (IC50) in test [1] and in [2] was greater than 150 µM in each case. The MIC with Bacillus spizizenii was 32 µg/mL; with Salmonella typhimurium, 16 µg/mL; in the test with Escherichia coli, 64 µg/mL; against Kocuria rhizophila it was 16 µg/mL; with Proteus hauseri it was 8 µg/mL; in the test on Staphylococcus aureus it was 8 µg/mL. In addition, the CC50 with K562 was 7.2 µM; in the test with A549, 4.6 µM.
As for `Cn1cncc1C(=O)c1nccc2c1[nH]c1ccccc12`, the half-inhibitory concentration (IC50) (at Sortase A; in test [1]; in test [2]) was greater than 150 µM each time. Further, the MIC is 50 µg/mL (≈ 181 µM) against Bacillus spizizenii; 25 µg/mL (≈ 90.5 µM) against Salmonella typhimurium; greater than 100 µg/mL in the test with Escherichia coli; 25 µg/mL (≈ 90.5 µM) against Kocuria rhizophila; greater than 100 µg/mL in the test with Proteus hauseri; greater than 100 µg/mL in the test on Staphylococcus aureus. Further, the CC50 stood at 13 µM with K562 and 12 µM in the test on A549.
For `Cn1cncc1C(=O)C1=NCCc2c1[nH]c1ccccc21`, the IC50 was greater than 150 µM against Sortase A, greater than 150 µM in [1] and 75 µM in test [2]. In addition, the minimal inhibitory concentration (MIC) is 25 µg/mL (≈ 89.8 µM) with Bacillus spizizenii; 6.3 µg/mL (≈ 22.6 µM) in the test with Salmonella typhimurium; greater than 100 µg/mL against Escherichia coli; 25 µg/mL (≈ 89.8 µM) in the test with Kocuria rhizophila; 50 µg/mL (≈ 180 µM) against Proteus hauseri; 50 µg/mL (≈ 180 µM) against Staphylococcus aureus. Moreover, the CC50 in the test on K562 stood at 9.2 µM; with A549 it was 9.9 µM.
As for `O=C(O)CC[N+](=O)[O-]`, inhibition in test [2] was half-maximal at 19 µM (IC50).
As for `O[C@@H]1CCCN2[C@@H](CC1)C[C@]13CN4CCCC/C=C\CC[C@](O)(C=C(c5nccc6c5[nH]c5ccccc56)[C@@H]1CC4)[C@H]23` [32,33-DIHYDRO-31-HYDROXYMANZAMINE A], the IC50 at Sortase A was greater than 150 µM; in test [1], greater than 150 µM; in test [2], 68 µM. Moreover, the minimal inhibitory concentration (MIC) with Bacillus spizizenii is 25 µg/mL (≈ 44.1 µM); against Salmonella typhimurium, 1.6 µg/mL (≈ 2.82 µM); against Escherichia coli it was greater than 100 µg/mL; in the test with Kocuria rhizophila it was 13 µg/mL (≈ 22.9 µM); in the test with Proteus hauseri it was 100 µg/mL (≈ 176 µM); in the test on Staphylococcus aureus it was 50 µg/mL (≈ 88.2 µM). In addition, the values for the CC50 in the test with K562 and in the test with A549 were 8.4 µM and 8.2 µM, respectively.
Take `CC1(C)S[C@@H]2[C@H](NC(=O)[C@H](N)c3ccccc3)C(=O)N2[C@H]1C(=O)O` [AMPICILLIN]: the MIC against Bacillus spizizenii stood at 0.78 µg/mL (≈ 2.23 µM); against Salmonella typhimurium, 0.39 µg/mL (≈ 1.12 µM); against Escherichia coli, 6.3 µg/mL (≈ 18 µM); against Kocuria rhizophila it was 0.39 µg/mL (≈ 1.12 µM); in the test on Proteus hauseri, 1.6 µg/mL (≈ 4.58 µM); in the test with Staphylococcus aureus it was 0.39 µg/mL (≈ 1.12 µM).
In the case of `COc1cccc2c1C(=O)c1c(O)c3c(c(O)c1C2=O)C[C@@](O)(C(=O)CO)C[C@@H]3O[C@H]1C[C@H](N)[C@H](O)[C@H](C)O1` [DOXORUBICIN], the results for the CC50 in the test with K562 and with A549 were 1.1 µM and 0.92 µM, respectively.
Regarding `O[C@]12C=C(c3nccc4c3[nH]c3ccccc34)[C@@H]3CCN(CCCC/C=C\CC1)C[C@@]31C[C@@H]3/C=C\CCCCN3[C@H]12` [MANZAMINE A], the IC50 against Sortase A is greater than 150 µM; in [1], greater than 150 µM; in [2], 140 µM. In addition, the minimal inhibitory concentration (MIC) against Bacillus spizizenii was 50 µg/mL (≈ 91.1 µM); against Salmonella typhimurium, 3.1 µg/mL (≈ 5.65 µM); in the test on Escherichia coli, greater than 100 µg/mL; in the test on Kocuria rhizophila, 50 µg/mL (≈ 91.1 µM); in the test with Proteus hauseri it was greater than 100 µg/mL; with Staphylococcus aureus, greater than 100 µg/mL. The CC50 with K562 worked out at 11 µM; in the test on A549, 8.3 µM.

As a reminder, the IC50 is the concentration needed to halve the response being measured. Read a high IC50 as weaker potency. As a reminder, the MIC is the smallest concentration in the dilution series that meets the test's criterion for growth inhibition. The low end stands for greater potency, the high end for weaker potency.
